The results in this text go back to article PMC7696940, “Effects of Rationally Designed Physico-Chemical Variants of the Peptide PuroA on Biocidal Activity towards Bacterial and Mammalian Cells” (International Journal of Molecular Sciences, 2020).

The test system of one test is E. coli and S. aureus. The test can be described thus: Salt tolerance (MICs under 0-150 mM NaCl, summary). Format: cell-based, Escherichia coli; Staphylococcus aureus. Also on record: key: Up to 50 mM: no effects on antibacterial activity up to 50 mM NaCl but increase in the MICs for E. coli and S. aureus at 100 mM NaCl; Intolerant: not resistant to salt effects even at 50 mM NaCl; Up to 150 mM: no effects on antibacterial activity up to 150 mM NaCl. To be noted: MICs for E. coli and S. aureus in MHB with 0, 50, 100 or 150 mM NaCl. As for the experimental part:
The activity of peptides was determined against the Gram-positive Staphylococcus aureus (ATCC 25923), and the Gram-negative Escherichia coli (ATCC 25922) and Pseudomonas aeruginosa (ATCC 9027) bacteria. Selected peptides were also tested against two clinical isolates of methicillin-resistant Staphylococcus aureus (MRSA), M173525 and M180920, kindly provided by Dr P. B. Ward (Microbiology Department, Austin and Repatriation Medical Centre, Heidelberg West, Victoria, Australia). The Minimum inhibitory concentration (MIC) of peptides was determined by the microtitre broth dilution method, as described in Phillips et al.. Briefly, bacteria were grown in Mueller-Hinton Broth (MHB) at 37 °C overnight with shaking (200 rpm). The cultures were adjusted to 0.5 McFarland turbidity standard (approximately 1 × 10^8 colony forming units (CFU)/mL), then diluted 1:100 in MHB (1 × 10^6 CFU/mL). A total of 75 μL of these suspensions were mixed with 25 μL of peptide solutions (final concentrations 250 to 0.5 μg/mL) and the microtitre plates incubated overnight at 37 °C. Positive growth controls (inoculum and MHB, with no peptide) and sterility controls (0.01% glacial acetic) were also included. Post-incubations, the absorbance of cultures at 595 nm was measured using a microplate reader (POLARstar Omega, Germany). […] To evaluate salt sensitivity of peptides up to physiological levels (150 mM NaCl), overnight cultures of S. aureus and E. coli adjusted to 0.5 McFarland turbidity standard were diluted 1:100 in MHB containing 0, 50, 100 or 150 mM NaCl, and the MICs of peptides determined as above. All tests were conducted in triplicate. The results are shown as the mode of values obtained.

In test [1] the test system is pBlueScript SK+ plasmid DNA. As to the kind of experiment: In vitro DNA-binding assay (gel retardation). To be noted: 100 ng pBlueScript SK+, peptide 8-500 µg/mL, 1 h room temperature, 1% agarose. The method, then: The ability of peptides to bind to purified DNA (indicative of in vivo DNA binding potential) was tested by the modified gel retardation assay developed by Alfred et al.. The DNA of pBlueScript SK+ (100 ng) was incubated with peptides (to final concentrations of 8, 16, 32, 64, 125, 250 or 500 µg/mL) in 15 µL volumes made with sterile MilliQ water, the held at room temperature for 1h. Loading dye was added to each sample and the samples electrophoresed on 1% agarose gels. The gels were then immersed in ethidium bromide ([…]) then visualized and imaged

Where no end group is shown, it is not given here. Bounds are passed on as bounds.

As for RKRWWRWWKWWKR-NH2 [Peptide P1], the “Salt Tolerance” value with E. coli and S. aureus is “Up to 150 mM”.
On to WRWWKWW-NH2 [Peptide W7], for which the “Salt Tolerance” value in the test with E. coli and S. aureus was “Up to 150 mM”. The “Binding to DNA in vitro (concentration inhibiting plasmid migration)” value in test [1] is recorded as not below 16 µg/mL.
